According to patent publication US12459921B2, “Isoindoline compound, preparation method, pharmaceutical composition and use thereof” (SHANGHAI INSTITUTE OF MATERIA MEDICA, CHINESE ACADEMY OF …, priority 2018, dated 2025):

What follows are molecules tested on MM.1S cells (assay: Inhibitory effect on the proliferation of MM.1S, MTS cell viability test). Details: Homo sapiens, MM1.S, 168 h, multiple myeloma MM.1S cells, 7 days incubation, read-out: Tumor cell inhibitory activity.
Type: cell-based
Experimental: Method of tumor cell proliferation inhibition test: the inventors tested all the example compounds on hematologic tumor cells, multiple myeloma MMTs cell line and acute leukemia cell MV-4-11 cell line of some examples. The activity test method and results are as follows.
1. The Compound's Inhibitory Effect on the Proliferation of MM.1S, MTS Cell Viability Test:
MM.1S cells were cultured and collected with 1640 plus 10% fetal bovine serum. The cell concentration was diluted according to 7 days, and 180 ul cell suspension was added to each well of the 96-well cell plate to 20,000 cells. 20 ul of DMSO with a final concentration of 0.2% was added to the control wells. The compound was 5-fold diluted—from the 10 mM stock solution, and 20 ul was also added to each compound cell well (the final concentration of DMSO was 0.2%). The cells were placed in a 37° C., 5% CO2 incubator to incubate for 7 days. After the reaction solution was prepared according to the MTS kit (Promega, G5430), 20 μL was added to each well and incubated in a 37° C., 5% CO2 incubator for 3-4 h. Absorbance value at 490 nm was read with a microtiter plate, and 690 nm absorbance value was used as the background value. OD490-OD690 was used as the final initial data. The formula for calculating the inhibition rate of the compound is: inhibition rate=(ODDMSO-ODcompound)/(ODDMSO-Oblank)×100%. The compound's proliferation inhibition IC50 was fitted by Graph Pad Prism 5.0. The experiment was repeated three times, and the average and standard deviation was calculated according to the three parallel experiments.
Cell viability test results: **** represents cell viability IC50>20 μM, […] represents cell viability 1 μM<IC50<20 μM, ** represents cell viability 100 nM<IC50<1 μM, * represents cell viability IC50<100 nM.

Structure (SMILES) | IC50
N#Cc1cccc(C2(C#N)CCN(CCCOc3cccc4c3CN(C3CCC(=O)NC3=O)C4=O)CC2)c1 (centres unmarked) [Example 67, 4-(3-cyanophenyl)-1-(3-((2-(2,6-dioxopiperidine-3-)-1-oxoisoindoline-4-)oxy)propyl)piperidine-4-carbonitrile] | 100 to 1000 nM
N#CC1(c2c(F)cccc2Cl)CCN(CCCOc2cccc3c2CN(C2CCC(=O)NC2=O)C3=O)CC1 (centres unmarked) [Example 68, 4-(2-chloro-6-fluorophenyl)-1-(3-((2-(2,6-dioxopiperidine-3-)-1-oxoisoindoline-4-)oxy)propyl)piperidine-4-carbonitrile] | < 100 nM
N#Cc1ccc(C2(C#N)CCN(CCCOc3cccc4c3CN(C3CCC(=O)NC3=O)C4=O)CC2)cc1 (centres unmarked) [Example 69, 4-(4-cyanophenyl)-1-(3-((2-(2,6-dioxopiperidine-3-)-1-oxoisoindoline-4-)oxy)propyl)piperidine-4-carbonitrile] | 100 to 1000 nM
N#CC1(c2ccc(Cl)cc2Cl)CCN(CCCOc2cccc3c2CN(C2CCC(=O)NC2=O)C3=O)CC1 (centres unmarked) [Example 70, 4-(2,4-chlorophenyl)-1-(3-((2-(2,6-dioxopiperidine-3-)-1-oxoisoindoline-4-)oxy)propyl)piperidine-4-carbonitrile] | < 100 nM
N#CC1(c2cccc(OC(F)(F)F)c2)CCN(CCCOc2cccc3c2CN(C2CCC(=O)NC2=O)C3=O)CC1 (centres unmarked) [Example 71, 1-(3-((2-(2,6-dioxopiperidine-3-)-1-oxoisoindoline-4-)oxy)propyl)-4-(3-trifluoromethoxyphenyl)piperidine-4-carbonitrile] | < 100 nM
N#CC1(c2ccc(Cl)cc2F)CCN(CCCOc2cccc3c2CN(C2CCC(=O)NC2=O)C3=O)CC1 (centres unmarked) [Example 72, 4-(4-chloro-2-fluorophenyl)-1-(3-((2-(2,6-dioxopiperidine-3-)-1-oxoisoindoline-4-)oxy)propyl)piperidine-4-carbonitrile] | < 100 nM
N#CC1(c2ccc(OC(F)(F)F)cc2)CCN(CCCOc2cccc3c2CN(C2CCC(=O)NC2=O)C3=O)CC1 (centres unmarked) [Example 73, 1-(3-((2-(2,6-dioxopiperidine-3-)-1-oxoisoindoline-4-)oxy)propyl)-4-(4-trifluoromethoxyphenyl)piperidine-4-carbonitrile] | < 100 nM
N#CC1(c2ccc(F)cc2Cl)CCN(CCCOc2cccc3c2CN(C2CCC(=O)NC2=O)C3=O)CC1 (centres unmarked) [Example 74, 4-(2-chloro-4-fluorophenyl)-1-(3-((2-(2,6-dioxopiperidine-3-)-1-oxoisoindoline-4-)oxy)propyl)piperidine-4-carbonitrile] | < 100 nM
N#CC1(c2cccc(Cl)c2)CCN(CCCCOc2cccc3c2CN(C2CCC(=O)NC2=O)C3=O)CC1 (centres unmarked) [Example 75, 4-(3-chlorophenyl)-1-(4-((2-(2,6-dioxopiperidine-3-)-1-oxoisoindoline-4-)oxy)butyl)piperidine-4-carbonitrile] | 100 to 1000 nM
N#CC1(c2c(Cl)cccc2Cl)CCN(CCCOc2cccc3c2CN(C2CCC(=O)NC2=O)C3=O)CC1 (centres unmarked) [Example 76, 4-(2,6-chlorophenyl)-1-(3-((2-(2,6-dioxopiperidine-3-)-1-oxoisoindoline-4-)oxy)propyl)piperidine-4-carbonitrile] | < 100 nM
N#CC1(c2ccc(Cl)cc2)CCN(CCCCOc2cccc3c2CN(C2CCC(=O)NC2=O)C3=O)CC1 (centres unmarked) [Example 77, 4-(4-chlorophenyl)-1-(4-((2-(2,6-dioxopiperidine-3-)-1-oxoisoindoline-4-)oxy)butyl)piperidine-4-carbonitrile] | 100 to 1000 nM
N#CC1(c2ccccc2OC(F)(F)F)CCN(CCCOc2cccc3c2CN(C2CCC(=O)NC2=O)C3=O)CC1 (centres unmarked) [Example 78, 1-(3-((2-(2,6-dioxopiperidine-3-)-1-oxoisoindoline-4-)-oxy-)propyl)-4-(2-trifluoromethoxyphenyl)piperidine-4-carbonitrile] | < 100 nM
N#CC1(c2cccc(Cl)c2)CCN(CCCCCOc2cccc3c2CN(C2CCC(=O)NC2=O)C3=O)CC1 (centres unmarked) [Example 79, 4-(3-chlorophenyl)-1-(5-((2-(2,6-dioxopiperidine-3-)-1-oxoisoindoline-4-)oxy)pentyl)piperidine-4-carbonitrile] | < 100 nM
C[C@]1(N2Cc3c(OCCCN4CCC(C#N)(c5ccccc5Cl)CC4)cccc3C2=O)CCC(=O)NC1=O [Example 80, (S)-4-(2-chlorophenyl)-1-(3-((2-(3-methyl-2,6-dioxopiperidine-3-)-1-oxoisoindoline-4-)oxy)propyl)piperidine-4-carbonitrile] | 1000 to 20000 nM
N#CC1(c2ccc(Cl)cc2)CCN(CCCCCOc2cccc3c2CN(C2CCC(=O)NC2=O)C3=O)CC1 (centres unmarked) [Example 81, 4-(4-chlorophenyl)-1-(5-((2-(2,6-dioxopiperidine-3-)-1-oxoisoindoline-4-)oxy)pentyl) piperidine-4-carbonitrile] | < 100 nM
N#CC1(c2ccccc2Cl)CCN(C(=O)CCCOc2cccc3c2CN(C2CCC(=O)NC2=O)C3=O)CC1 (centres unmarked) [Example 82, 4-(2-chlorophenyl)-1-(4-((2-(2,6-dioxopiperidine-3-)-1-oxoisoindoline-4-)oxy)butyryl)piperidine-4-carbonitrile] | 100 to 1000 nM
N#CC1(c2cccc(Cl)c2)CCN(C(=O)CCCOc2cccc3c2CN(C2CCC(=O)NC2=O)C3=O)CC1 (centres unmarked) [Example 83, 4-(3-chlorophenyl)-1-(4-((2-(2,6-dioxopiperidine-3-)-1-oxoisoindoline-4-)oxy)butyryl) piperidine-4-carbonitrile] | < 100 nM
N#CC1(c2ccc(Cl)cc2)CCN(C(=O)CCCOc2cccc3c2CN(C2CCC(=O)NC2=O)C3=O)CC1 (centres unmarked) [Example 84, 4-(4-chlorophenyl)-1-(4-((2-(2,6-dioxopiperidine-3-)-1-oxoisoindoline-4-)oxy)butyryl)piperidine-4-carbonitrile] | 100 to 1000 nM
N#CC1(c2ccccc2Cl)CCN(C(=O)CCCCOc2cccc3c2CN(C2CCC(=O)NC2=O)C3=O)CC1 (centres unmarked) [Example 85, 4-(2-chlorophenyl)-1-(5-((2-(2,6-dioxopiperidine-3-)-1-oxoisoindoline-4-)oxy)valeryl)piperidine-4-carbonitrile] | < 100 nM
N#CC1(c2cccc(Cl)c2)CCN(C(=O)CCCCOc2cccc3c2CN(C2CCC(=O)NC2=O)C3=O)CC1 (centres unmarked) [Example 87, 4-(3-chlorophenyl)-1-(5-((2-(2,6-dioxopiperidine-3-)-1-oxoisoindoline-4-)oxy)valeryl)piperidine-4-carbonitrile] | < 100 nM
N#CC1(c2ccccc2OC(F)(F)F)CCN(C(=O)CCCOc2cccc3c2CN(C2CCC(=O)NC2=O)C3=O)CC1 (centres unmarked) [Example 90, 1-(4-((2-(2,6-dioxopiperidine-3-)-1-oxoisoindoline-4-)-oxy-)butyryl)-4-(2-trifluoromethoxyphenyl)piperidine-4-carbonitrile] | 1000 to 20000 nM
N#CC1(c2ccccc2Cl)CCN(CCCCc2cccc3c2CN(C2CCC(=O)NC2=O)C3=O)CC1 (centres unmarked) [Example 91, 4-(2-chlorophenyl)-1-(4-(2-(2,6-dioxopiperidine-3-)-1-oxoisoindoline-4-)butyl)piperidine-4-carbonitrile] | < 100 nM
N#CC1(c2ccccc2Cl)CCN(CCCCCc2cccc3c2CN(C2CCC(=O)NC2=O)C3=O)CC1 (centres unmarked) [Example 92, 4-(2-chlorophenyl)-1-(5-(2-(2,6-oxopiperidine-3-)-1-oxoisoindoline-4-)pentyl)piperidine-4-carbonitrile] | < 100 nM
N#CC1(c2cccc(Cl)c2)CCN(CCCCc2cccc3c2CN(C2CCC(=O)NC2=O)C3=O)CC1 (centres unmarked) [Example 93, 4-(3-chlorophenyl)-1-(4-(2-(2,6-dioxopiperidine-3-)-1-oxoisoindoline-4-)butyl)piperidine-4-carbonitrile] | < 100 nM
N#CC1(c2cccc(OC(F)(F)F)c2)CCN(CCCCCc2cccc3c2CN(C2CCC(=O)NC2=O)C3=O)CC1 (centres unmarked) [Example 94, 1-(5-(2-(2,6-dioxopiperidine-3-)-1-oxoisoindoline-4-)pentyl)-4-(3-trifluoromethoxyphenyl) piperidine-4-carbonitrile] | < 100 nM
N#CC1(c2ccc(Cl)cc2)CCN(CCCCc2cccc3c2CN(C2CCC(=O)NC2=O)C3=O)CC1 (centres unmarked) [Example 95, 4-(4-chlorophenyl)-1-(4-(2-(2,6-dioxopiperidine-3-)-1-oxoisoindoline-4-)butyl)piperidine-4-carbonitrile] | < 100 nM
N#CC1(c2ccc(OC(F)(F)F)cc2)CCN(CCCCCc2cccc3c2CN(C2CCC(=O)NC2=O)C3=O)CC1 (centres unmarked) [Example 96, 1-(5-(2-(2,6-dioxopiperidine-3-)-1-oxoisoindoline-4-)pentyl)-4-(4-trifluoromethoxyphenyl)piperidine-4-carbonitrile] | < 100 nM
N#CC1(c2cccc(OC(F)(F)F)c2)CCN(CCCCc2cccc3c2CN(C2CCC(=O)NC2=O)C3=O)CC1 (centres unmarked) [Example 97, 1-(4-(2-(2,6-dioxopiperidine-3-)-1-oxoisoindoline-4-)butyl)-4-(3-trifluoromethoxyphenyl) piperidine-4-carbonitrile] | < 100 nM
N#CC1(c2ccccc2Cl)CCN(CCCCCCc2cccc3c2CN(C2CCC(=O)NC2=O)C3=O)CC1 (centres unmarked) [Example 98, 4-(2-chlorophenyl)-1-(6-(2-(2,6-dioxopiperidine-3-)-1-oxoisoindoline-4-)hexyl)piperidine-4-carbonitrile] | < 100 nM
